# Test results reported in US7863326B2, “Pharmaceutical compositions comprising ascorbic acid for the treatment of fungal superinfections and fungal recurrences” (Polichem S.A., priority 2003, dated 2011).
# How the values were obtained:
# [1] = tested on: experimental renal candidiasis; settings: rats, orally supplemented to the diet; evident at very low dose, disappearing at a higher dose level; cited from earlier work
# Candida [2] = test: Randomized double-blind placebo-controlled study of preventing Candida superinfection after standard metronidazole treatment; type: in vivo, patients
# Protocol: Two hundred patients with a negative microbiology of their vaginal specimen after a standard metronidazole treatment have been included in a controlled study aimed at the evaluation of ascorbic acid capability to prevent Candida superinfection in those patients. The study was randomized, double blind, parallel groups versus placebo. As active treatment, a 6-day course of vaginal tablets, containing 250 mg silicon-coated ascorbic acid as per the Example 2, was given once monthly for 3 months starting after menses. Placebo was undistinguishable from active treatment. Ninety-five patients in the active group and 92 respectively in the placebo group terminated the study and were included in the efficacy analysis. […] The protection factor of ascorbic acid against Candida superinfection in this experiment was 40%.
# Candida [3] = test: Double-blind placebo-controlled study of preventing Candida reinfection after miconazole in women with recurrent vaginal candidiasis; type: in vivo
# Text: Forty women with an exacerbation of recurrent vaginal candidiasis underwent a follow up preventative therapy with ascorbic acid. Most important inclusion criteria were: adult women in fertile age (18-50); ≧3 episodes of acute vaginal candidiasis in the last 12 months; acute vaginal candidiasis in the last 14 days; eradication of Candida (fresh examination) after an appropriate miconazole treatment. Exclusion criteria were: severe vaginal infections; HIV positivity; diabetes; pregnant women. The design was double blind, parallel groups versus placebo.
# After completion of the standard treatment with miconazole, all the responders (patients with eradication of Candida at the end of treatment) were randomized to a standardized preventative vaginal application of ascorbic acid (in form of gel, containing 7.1% ascorbic acid as the only active ingredient, same composition as per the Example 1) or to an undistinguishable placebo. The product was applied once daily in the evening, before going to bed, for 6 consecutive days. The 6-day cycle was repeated monthly for 6 consecutive months, starting on the first month immediately after patient randomization; during the following 5 months, the therapeutic cycle with ascorbic acid was started on the day after termination of cyclic menses. Primary endpoint of the study was the occurrence of episodes of Candida reinfection, confirmed by fresh examination of the vaginal smear. In case of reinfection, this was treated with a further standard miconazole treatment and the follow up with ascorbic acid was continued immediately after confirmation of microbiological eradication. All patients in the ascorbic acid group terminated the study, 2 patients of placebo group were lost to follow up. […] The protection factor of ascorbic acid against Candida reinfection was 46% in this investigation.
compound,measurement,setting,value
"O=C1O[C@H]([C@@H](O)CO)C(O)=C1O [ascorbic acid, L-ascorbic acid]",effect on the resistance to experimental renal candidiasis,[1],inconclusive
same,patients with Candida superinfection (percent of group),"Candida [2]; vaginal tablets with 250 mg silicon-coated ascorbic acid, 6-day course once monthly for 3 months",9%
same,patients with Candida superinfection,"Candida [2]; vaginal tablets with 250 mg silicon-coated ascorbic acid, 6-day course once monthly for 3 months, 95 patients analysed",9 patients
same,protection factor against Candida superinfection,"Candida [2]; versus placebo, 3 months",40%
same,episodes of reinfection,"Candida [3]; 7.1% ascorbic acid vaginal gel once daily for 6 days, cycle repeated monthly for 6 months, reinfection confirmed by fresh examination of vaginal smear",15 episodes
same,acute infection:patient rate,"Candida [3]; 7.1% ascorbic acid vaginal gel, 6-day cycles monthly for 6 months",0.75 /6 months
same,protection factor against Candida reinfection,"Candida [3]; versus placebo, 6 months",46%
